From patent publication US5674879A, “Compositions including and methods of using conformationally restricted angiotensin II antagonist” (G.D. Searle & Co., priority 1995, dated 1997) come the findings set out here.

Like-named read-outs stand apart in the source and are kept apart here.

For assay [1], the target named is smooth muscle angiotensin II receptor. Nature of the assay: Assay A: Angiotensin II Binding Activity (displacement of 125I-angiotensin II, rat uterine membrane preparation). Particulars: 50% displacement of specifically bound 125I-AII, rat uterine membranes, 25° C., 60 min, pH 7.5. The protocol:
Assay A: Angiotensin II Binding Activity
Compounds of the invention were tested for ability to bind to the smooth muscle angiotensin II receptor using a rat uterine membrane preparation. Angiotensin II (AII) was purchased from Peninsula Labs. ^125 I-angiotensin II (specific activity of 2200 Ci/mmol) was purchased from Du Pont-New England Nuclear. Other chemicals were obtained from Sigma Chemical Co. This assay was carried out according to the method of Douglas et al [Endocrinology, 106, 120-124 (1980)]. Rat uterine membranes were prepared from fresh tissue. All procedures were carried out at 4° C. Uteri were stripped of fat and homogenized in phosphate-buffered saline at pH 7.4 containing 5 mM EDTA. The homogenate was centrifuged at 1500×g for 20 min., and the supernatant was recentrifuged at 100,000×g for 60 min. The pellet was resuspended in buffer consisting of 2 mM EDTA and 50 mM Tris-HCl (pH 7.5) to a final protein concentration of 4 mg/ml. Assay tubes were charged with 0.25 ml of a solution containing 5 mM MgCl2, 2 mM EDTA, 0.5% bovine serum albumin, 50 mM Tris-HCl, pH 7.5 and ^125 I-AII (approximately 10^5 cpm) in the absence or in the presence of unlabelled ligand. The reaction was initiated by the addition of membrane protein and the mixture was incubated at 25° C. for 60 min. The incubation was terminated with ice-cold 50 mM Tris-HCl (pH 7.5) and the mixture was filtered to separate membrane-bound labeled peptide from the free ligand. The incubation tube and filter were washed with ice-cold buffer. Filters were assayed for radioactivity in a Micromedic gamma counter. Nonspecific binding was defined as binding in the presence of 10 μM of unlabelled AII. Specific binding was calculated as total binding minus nonspecific binding. The receptor binding affinity of an AII antagonist compound was indicated by the concentration (IC50) of the tested AII antagonist which gives 50% displacement of the total specifically bound ^125 I-AII from the high affinity AII receptor. Binding data were analyzed by a nonlinear least-squares curve fitting program.
For orientation: Displacement assays read how much labelled ligand stays bound in the presence of the test substance.

Assay [2] has as its target T1, rabbit aortic rings (angiotensin II contraction) (Oryctolagus cuniculus, UniProt P34976).
T1 construct: The thoracic aorta was removed, cleaned of adherent fat and connective tissue and then cut into 3-mm ring segments; from tissue; host or cells: rabbit thoracic aorta rings, endothelium removed
T1 sequence (P34976 1-359): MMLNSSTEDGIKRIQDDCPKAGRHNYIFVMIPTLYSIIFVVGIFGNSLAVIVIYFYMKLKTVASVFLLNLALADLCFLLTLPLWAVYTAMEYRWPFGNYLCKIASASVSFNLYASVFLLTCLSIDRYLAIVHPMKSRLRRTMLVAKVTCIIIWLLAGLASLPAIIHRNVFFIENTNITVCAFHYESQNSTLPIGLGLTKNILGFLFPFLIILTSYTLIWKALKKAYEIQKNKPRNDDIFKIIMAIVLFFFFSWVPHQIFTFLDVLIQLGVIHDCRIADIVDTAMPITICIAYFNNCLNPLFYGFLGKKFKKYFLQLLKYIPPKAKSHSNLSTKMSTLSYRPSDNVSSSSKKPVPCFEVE
Put plainly: Assay B: In Vitro Vascular Smooth Muscle Response for AII (rabbit aortic rings). It is filed as cell-based, rabbit (male New Zealand white). Particulars: rabbit aorta rings, antagonist 10^-5 M for 5 min, 37° C., read-out: Assay B pA2 (converted). The protocol: Assay B: In Vitro Vascular Smooth Muscle-Response for AII
The compounds of the invention were tested for antagonist activity in rabbit aortic rings. Male New Zealand white rabbits (2-2.5 kg) were sacrificed using an overdose of pentobarbital and exsanguinated via the carotid arteries. The thoracic aorta was removed, cleaned of adherent fat and connective tissue and then cut into 3-mm ring segments. The endothelium was removed from the rings by gently sliding a rolled-up piece of filter paper into the vessel lumen. The rings were then mounted in a water-jacketed tissue bath, maintained at 37° C., between moveable and fixed ends of a stainless steel wire with the moveable end attached to an FT03 Grass transducer coupled to a Model 7D Grass Polygraph for recording isometric force responses. The bath was filled with 20 ml of oxygenated (95% oxygen/5% carbon dioxide) Krebs solution of the following composition (mM): 130 NaCl, 15 NaHCO3, […], 1.2 NaH2 PO4, 1.2 MgSO4, 2.5 CaCl2, and 11.4 glucose. The preparations were equilibrated for one hour before approximately one gram of passive tension was placed on the rings. Angiotensin II concentration-response curves were then recorded (3×10^-10 to 1×10^-5 M). Each concentration of AII was allowed to elicit its maximal contraction, and then AII was washed out repeatedly for 30 minutes before rechallenging with a higher concentration of AII. Aorta rings were exposed to the test antagonist at 10^-5 M for 5 minutes before challenging with AII. Adjacent segments of the same aorta ring were used for all concentration-response curves in the presence or absence of the test antagonist. The effectiveness of the test compound was expressed in terms of pA2 values and were calculated according to H. O. Schild [Br. J. Pharmacol. Chemother., 2, 189-206 (1947)]. The pA2 value is the concentration of the antagonist which increases the IC50 value for AII by a factor of two. Each test antagonist was evaluated in aorta rings from two rabbits.

[3] abbreviates: first of two values in the cell (rings from two rabbits).
The mark [4] stands for this setting: second of two values in the cell (rings from two rabbits).

Broadly, the IC50 is the concentration that gives 50% inhibition. The molecule `CCCCc1nc(CCCC)n2c1C=CCCC2c1ccc(-c2ccccc2-c2nnn[nH]2)cc1` (stereo not shown) [Example 10, 1,3-Dibutyl-6,7-dihydro-5-[2'-(1H-tetrazol-5-yl)[1,1'-biphenyl]-4-yl]-5H-imidazo[1,5-a]azepine] came in with a half-inhibitory concentration (IC50) in assay [1] of 0.33 µM.
`CCCCc1ncc2n1C(c1ccc(-c3ccccc3-c3nnn[nH]3)cc1)CCC2=CC(=O)O` (stereo not shown) [Example 16, [3-Butyl-6,7-dihydro-5-[2'-(1H-tetrazol-5-yl)[1,1'-biphenyl]-4-yl]imidazo[1,5-a]pyridin-8(5H)-ylidene]acetic acid] yielded a half-inhibitory concentration (IC50) in assay [1] of 0.44 µM. The Kb in assay [2] (setting [3]) is 0.00776 µM; in assay [2] (setting [4]) it was 0.0162 µM.
The like results for `CCCCc1nc(CCCC)n2c1C=C(Br)CC2c1ccc(-c2ccccc2-c2nnn[nH]2)cc1` (stereo not shown) [Example 2, 7-Bromo-1,3-dibutyl-5,6-dihydro-5-[2'-(1H-tetrazol-5-yl)[1,1'-biphenyl]-4-yl]imidazo[1,5-a]pyridine] were, in that order, 2.1 µM, 1.45 µM and 0.263 µM.
In assay [1], `CCCCc1ncc2n1C(c1ccc(-c3ccccc3-c3nnn[nH]3)cc1)CC=C2` (stereo not shown) [Example 11, 3-Butyl-5,6-dihydro-5-[2'-(1H-tetrazol-5-yl)[1,1'-biphenyl]-4-yl]imidazo[1,5-a]pyridine] had an IC50 of 0.12 µM.
On the same count and under the same terms, as for `CCCCc1nc(CCCC)n2c1C(=CC(=O)O)CCC2c1ccc(-c2ccccc2-c2nnn[nH]2)cc1` (stereo not shown) [Example 7, [1,3-Dibutyl-6,7-dihydro-5-[2'-(1H-tetrazol-5-yl)[1,1'-biphenyl]-4-yl]imidazo[1,5-a]pyridin-8(5H)-ylidene]acetic acid], the figure is 15 µM.
`CCCCc1nc(CCCC)n2c1C(N1C(=O)CCC1=O)CCC2c1ccc(-c2ccccc2-c2nnn[nH]2)cc1` (stereo not shown) [Example 8, 1-[1,3-Dibutyl-5,6,7,8-tetrahydro-5-[2'-(1H-tetrazol-5-yl)[1,1'-biphenyl]-4-yl]imidazo[1,5-a]pyridin-8-yl]-2,5-pyrrolidinedione]: the IC50 in assay [1] was 0.027 µM.
`CCCCc1nc(CCCC)n2c1C(=O)CCC2c1ccc(-c2ccccc2-c2nn[nH]n2)cc1` (stereo not shown) [Example 5, 1,3-Dibutyl-5,6-dihydro-5-[2'-(1H-tetrazol-5-yl)[1,1'-biphenyl]-4-yl]imidazo[1,5-a]pyridin-8(5H)-one] had an IC50 in assay [1] of 0.06 µM. Besides, the Kb in assay [2] (setting [3]) was 0.0138 µM; in assay [2] (setting [4]), 0.00708 µM.
The like results for `CCCCc1ncc2n1C(c1ccc(-c3ccccc3-c3nnn[nH]3)cc1)CC=C2CC(=O)OC(C)(C)C` (stereo not shown) [Example 17, 1,1-Dimethylethyl 3-butyl-5,6-dihydro-5-[2'-(1H-tetrazol-5-yl)[1,1'-biphenyl]-4-yl]imidazo[1,5-a]pyridin-8-acetate] were, in that order, 0.041 µM, 0.0162 µM and 0.0537 µM.
In assay [1], `CCCCc1ncc2n1[C@@H](c1ccc(-c3ccccc3-c3nn[nH]n3)cc1)CC[C@H]2CC(=O)OC(C)(C)C` (relative stereo) [Example 19, 1,1-Dimethylethyl 3-butyl-5,6,7,8-tetrahydro-5-[2'-(1H-tetrazol-5-yl)[1,1'-biphenyl]-4-yl]imidazo[1,5-a]pyridin-cis-8-acetate] registered an IC50 of 0.067 µM. Further, the figures for the Kb in assay [2] (setting [3]) and in assay [2] (setting [4]) were 0.0708 µM and 0.141 µM, respectively.
The like results for `CCCCc1nc(CCCC)n2c1C=CCC2c1ccc(-c2ccccc2-c2nnn[nH]2)cc1` (stereo not shown) [Example 1, 1,3-Dibutyl-5,6-dihydro-5-[2'-(1H-tetrazol-5-yl)[1,1'-biphenyl]-4-yl]imidazo[1,5-a]pyridine] were, in that order, 0.19 µM, 0.398 µM and 0.537 µM.
In the case of `CCCCc1ncc2n1C(c1ccc(-c3ccccc3-c3nn[nH]n3)cc1)CCC2=O` (stereo not shown) [Example 12, 3-Butyl-5,6-dihydro-5-[2'-(1H-tetrazol-5-yl)[1,1'-biphenyl]-4-yl]imidazo[1,5-a]pyridin-8(5H)-one], in assay [1], the IC50 was 0.11 µM. In addition, the Kb in assay [2] (setting [3]) is 0.219 µM; in assay [2] (setting [4]) it was 0.0891 µM.
The like results for `CCCCc1nc(CCCC)n2c1C(NC(=O)CCC(=O)NN)CCC2c1ccc(-c2ccccc2-c2nn[nH]n2)cc1` (stereo not shown) [Example 9] were, in that order, 0.044 µM, 0.0708 µM and 0.0575 µM.
As to `CCCCc1ncc2n1[C@H](c1ccc(-c3ccccc3-c3nnn[nH]3)cc1)CC[C@@H]2OCc1ccccc1` (relative stereo) [Example 24, 3-Butyl-5,6,7,8-tetrahydro-5-[2'-(1H-tetrazol-5-yl)[1,1'-biphenyl]-4-yl]-cis-8-phenylmethoxy-imidazo[1,5-a]pyridine], the IC50 in assay [1] was found to be 0.036 µM.
Turning to `CCCCc1nc(CCCC)n2c1C(=NO)CCC2c1ccc(-c2ccccc2-c2nn[nH]n2)cc1` (stereo not shown) [Example 21, 1,3-Dibutyl-5,6-dihydro-N-hydroxy-5-[2'-(1H-tetrazol-5-yl)[1.1'-biphenyl]-4-yl]imidazol[1,5-a]pyridin-8(7H)-imine], the half-inhibitory concentration (IC50) in assay [1] stood at 0.066 µM. Besides, the Kb in assay [2] (setting [3]) is 0.105 µM; in assay [2] (setting [4]), 0.741 µM.
Molecule `CCCCc1nc(CCCC)n2c1C(c1ccccc1)=CCC2c1ccc(-c2ccccc2-c2nnn[nH]2)cc1` (stereo not shown) [Example 6, 1,3-Dibutyl-5,6-dihydro-8-phenyl-5-[2'-(1H-tetrazol-5-yl)[1,1'-biphenyl]-4-yl]imidazo[1,5-a]pyridine] returned an IC50 in assay [1] of 2.8 µM.
`CCCCc1ncc2n1C(c1ccc(-c3ccccc3-c3nnn[nH]3)cc1)CCC2=CC(=O)OC(C)(C)C` (stereo not shown) [Example 15, 1,1-Dimethylethyl [3-butyl-6,7-dihydro-5-[2'-(1H-tetrazol-5-yl)[1,1'-biphenyl]-4-yl]imidazo[1,5-a]pyridin-8(5H)-ylidene]acetate] yielded an IC50 in assay [1] of 0.16 µM. Further, the Kb is 0.347 µM in assay [2] (setting [3]) and 0.186 µM in assay [2] (setting [4]).
For the molecule `CCCCc1nc(CCCC)n2c1CCCC2c1ccc(-c2ccccc2-c2nnn[nH]2)cc1` (stereo not shown) [Example 3, 1,3-Dibutyl-5,6,7,8-tetrahydro-5-[2'-(1H-tetrazol-5-yl)[1,1'-biphenyl]-4-yl]imidazo[1,5-a]pyridine], the IC50 in assay [1] turned out to be 0.27 µM. Moreover, the figures for the Kb in assay [2] (setting [3]) and in assay [2] (setting [4]) were 0.0537 µM and 0.224 µM, respectively.
For the molecule `CCCCc1ncc2n1C(c1ccc(-c3ccccc3-c3nnn[nH]3)cc1)CC=C2CC(=O)O` (stereo not shown) [Example 18, 3-Butyl-5,6-dihydro-5-[2'-(1H-tetrazol-5-yl)[1,1'-biphenyl]-4-yl]imidazo[1,5-a]pyridin-8-acetic acid], the half-maximal inhibitory concentration (IC50) in assay [1] came out at 0.2 µM.
